Data: patent publication US7880007B2, “Bicyclic substituted phenyl piperidine modulators of muscarinic receptors” (Vertex Pharmaceuticals Incorporated, priority 2004, dated 2011)

Experiments:
Format in all cases: cell-based
[1] = target: T1, M1 muscarinic receptor (Homo sapiens, UniProt P11229); assay: Functional mobilization of intracellular calcium (FLIPR), M1-CHO cells; settings: for Emax: 100% efficacy = maximum response obtained with the Carbachol control; for M1 Activity: M1-CHO cells, calcium mobilization (FLIPR)
T1 construct: expressed in transfected cells; host or cells: CHO (M1-CHO)
T1 sequence (P11229 1-460): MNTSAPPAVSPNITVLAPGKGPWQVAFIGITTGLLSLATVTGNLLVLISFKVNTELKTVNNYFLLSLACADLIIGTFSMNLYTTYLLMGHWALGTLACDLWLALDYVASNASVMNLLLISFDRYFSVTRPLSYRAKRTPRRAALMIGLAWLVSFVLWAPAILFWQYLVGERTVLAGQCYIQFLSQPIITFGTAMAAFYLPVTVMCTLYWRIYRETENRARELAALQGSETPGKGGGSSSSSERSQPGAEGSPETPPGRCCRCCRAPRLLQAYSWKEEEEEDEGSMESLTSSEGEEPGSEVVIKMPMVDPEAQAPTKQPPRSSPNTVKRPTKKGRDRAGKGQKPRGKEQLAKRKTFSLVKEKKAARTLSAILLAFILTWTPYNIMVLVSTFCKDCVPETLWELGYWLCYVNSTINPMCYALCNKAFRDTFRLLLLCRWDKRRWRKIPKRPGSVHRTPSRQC
Method: (§1) Functional Mobilization of Intracellular Calcium to Determine Muscarinic Receptor Activity:
(§2) CHO cells expressing muscarinic receptors (M1 to M5) are grown as monolayers in tissue culture flasks at 37° C. in a humidified atmosphere containing 5% CO2 and passaged every 3-5 days. The growth media is Dulbecco's modified eagles medium (DMEM, Gibco Cat #12430-054), containing 25 mM Hepes and supplemented with Fetal Bovine Serum (Hyclone, cat #SH30071.03), 0.1 mM of MEM non-essential amino acids (GIBCO, Cat #11140-050), 1 mM MEM Sodium Pyruvate (GIBCO Cat #11360-070) and 100 units/ml of Penicillin G and 100 μg/ml of Streptomycin (GIBCO Cat #15140-122). The recombinant muscarinic receptor cell lines are grown under antibiotic pressure with media containing 25 μg/ml zeocin and 500 μg/ml G418 (M1-CHO), 4 μg/ml puromycin, 50 μg/ml zeocin and 2.5 μg/ml blasticidin (M2 and M4-CHO) or 50 μg/ml zeocin and 4 μg/ml puromycin (M3 and M5-CHO).
(§3) Cells are harvested at 80-90% confluence using Versene (GIBCO Cat #15040-066), collected by centrifugation and seeded 18-24 hrs prior to running the calcium assay at a density of 5,000-10,000 cells/well in […], clear-bottomed 384-well plates (BD Biocoat, poly-D-lysine, Cat #356663). The day of the experiment, the cells are washed with a plate washer (Bioteck Instruments, ELX 405) using bath 1 buffer (140-mM NaCl, 4.5-mM KCl, 2-mM CaCl2, 1-mM MgCl2, 10-mM Hepes-Na, 10-mM Glucose, pH 7.4, with NaOH) containing 1 mM Probenecid. Next, the calcium dye Fluo-3 (25 μl/well of Fluo-3 AM at 4 μM, Molecular Probes F-1241, in Bath 1 buffer containing 1 mM Probenecid) is added to the 25 μl of Bath 1 remaining in each well after the plate wash and the dye is loaded at 37° C. in the tissue culture incubator for 60-90 min. The fluorescent dye is removed using the plate washer with Bath 1 containing 1 mM Probenecid, leaving 25 μl/well of this solution after the wash. Alternatively, cells can be loaded with the calcium indicator from Molecular Devices (Calcium 3 Assay Reagents, Cat #R7181) adding 5 μl of a 5× solution dye in Bath 1 containing 1 mM Probenecid (10 ml per dye flask cat #R7182 to generate a solution 20×) to 20 μl of the same buffer. After loading for 60 min, the experiment can be run without having to remove the dye.
(§4) Compounds are prepared at a 2× fold concentration in a 96-well plate (round bottom, Costar Corning cat #3656), by reconstituting the pre-spotted compounds in bath 1 containing 1 mM probenecid. The final concentration DMSO is 0.5%, and the amount of DMSO is normalized across the assay plate. To determine an agonist action of the compounds on muscarinic receptors, the reconstituted compounds are added (25 μl compound/well) to the cell assay plate (containing 25 μl/well) using the multi-channel robotic system of the FLIPR 3 Instrument (Molecular Devices, Sunnyvale, Calif.). To determine a functional inhibitory action of the compounds on muscarinic receptors, the reconstituted compounds are added (25 μl compound/well) to the assay plate and pre-incubated for 15 min prior to adding 25 μl of Carbachol at 3× the EC80 for each muscarinic subtype. Alternatively, the compounds can be co-applied simultaneously with the agonist. In both assay modes, the fluorescence is recorded for 60 sec (excitation wavelength is […] and emission wavelength 540 nm) using the FLIPR 3 instrument.
(§5) The potency, efficacy and selectivity of the muscarinic compounds were evaluated by screening the compound activity across the whole family (M1 to M5 cells). Compounds were also screened for activity on other proteins such as other GPCRs and ion channels to determine selectivity on M4 receptors.
(§6) Examples of activities and efficacies of the muscarinic compounds of formulae (I, Ia, Ib, and II) on modulating M1, M2, M3 and M4 receptors are shown below in Table 3. […]

[2] = target: T2, M2 muscarinic receptor (Homo sapiens, UniProt P08172); assay: Functional mobilization of intracellular calcium (FLIPR), M2-CHO cells; settings: for Emax: 100% efficacy = maximum response obtained with the Carbachol control; for M2 Activity: M2-CHO cells, calcium mobilization (FLIPR)
T2 construct: expressed in transfected cells; host or cells: CHO (M2-CHO)
T2 sequence (P08172 1-466): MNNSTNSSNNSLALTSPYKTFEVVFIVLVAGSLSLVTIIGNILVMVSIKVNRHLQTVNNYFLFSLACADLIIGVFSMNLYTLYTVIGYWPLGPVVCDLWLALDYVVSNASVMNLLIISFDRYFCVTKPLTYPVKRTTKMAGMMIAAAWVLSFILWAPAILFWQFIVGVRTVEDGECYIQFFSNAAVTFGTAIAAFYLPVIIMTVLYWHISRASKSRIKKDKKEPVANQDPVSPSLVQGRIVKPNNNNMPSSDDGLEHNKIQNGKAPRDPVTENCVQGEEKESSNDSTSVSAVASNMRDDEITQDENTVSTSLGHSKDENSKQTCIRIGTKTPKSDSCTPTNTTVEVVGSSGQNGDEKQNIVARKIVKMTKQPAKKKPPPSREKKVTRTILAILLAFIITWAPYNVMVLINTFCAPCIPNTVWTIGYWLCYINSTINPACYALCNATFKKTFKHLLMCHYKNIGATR
Method: as §1, §2, §3, §4, §5, §6

[3] = target: T3, M4 muscarinic receptor (Homo sapiens, UniProt P08173); assay: Functional mobilization of intracellular calcium (FLIPR), M4-CHO cells; settings: for Emax: 100% efficacy = maximum response obtained with the Carbachol control; for M4 Activity: M4-CHO cells, calcium mobilization (FLIPR)
T3 construct: expressed in transfected cells; host or cells: CHO (M4-CHO)
T3 sequence (P08173 1-479): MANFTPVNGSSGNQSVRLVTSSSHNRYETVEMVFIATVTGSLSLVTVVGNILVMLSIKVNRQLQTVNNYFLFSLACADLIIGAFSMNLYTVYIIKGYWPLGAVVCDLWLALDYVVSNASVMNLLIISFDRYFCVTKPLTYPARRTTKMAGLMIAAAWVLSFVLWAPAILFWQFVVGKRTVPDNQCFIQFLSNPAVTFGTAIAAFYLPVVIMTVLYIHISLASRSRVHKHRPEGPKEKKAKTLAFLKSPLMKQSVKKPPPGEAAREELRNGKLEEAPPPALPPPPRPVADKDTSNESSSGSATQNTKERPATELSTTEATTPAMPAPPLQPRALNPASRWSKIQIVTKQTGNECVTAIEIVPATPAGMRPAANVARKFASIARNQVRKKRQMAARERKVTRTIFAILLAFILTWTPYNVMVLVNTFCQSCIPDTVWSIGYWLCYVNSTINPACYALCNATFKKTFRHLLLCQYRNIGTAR
Method: as §1, §2, §3, §4, §5, §6

Row | Compound | Emax [1] | M1 Activity [1] | Emax [2] | M2 Activity [2] | Emax [3] | M4 Activity [3]
1 | COc1ccc(C)cc1C1CCN(CC2C[C@H]3CC[C@H]2C3)CC1 (stereo partly drawn) [Compound 107] | 25 to 100% | + (activity was measured to be greater than 5.0 μM) | < 25% | + (activity was measured to be greater than 5.0 μM) | 25 to 100% | +++ (activity was measured to be less than 1.0 μM)
2 | CCCC1CCC(N2CCC(c3cc(F)ccc3OC)CC2)CC1 (stereo not drawn) [Compound 125] | 25 to 100% | +++ (activity was measured to be less than 1.0 μM) | 25 to 100% | ++ (activity was measured to be from 1.0 μM to 5.0 μM) | 25 to 100% | +++ (activity was measured to be less than 1.0 μM)
3 | CCOC(=O)N1C2CCC1CC(N1CCC(C#N)(c3ccccc3OC)CC1)C2 (stereo not drawn) [Compound 131] | 25 to 100% | +++ (activity was measured to be less than 1.0 μM) | < 25% | + (activity was measured to be greater than 5.0 μM) | 25 to 100% | +++ (activity was measured to be less than 1.0 μM)
4 | COc1ccccc1C1(C#N)CCN(C2CC3CCC2C3)CC1 (stereo not drawn) [Compound 136] | 25 to 100% | + (activity was measured to be greater than 5.0 μM) | < 25% | + (activity was measured to be greater than 5.0 μM) | 25 to 100% | ++ (activity was measured to be from 1.0 μM to 5.0 μM)
5 | COc1ccc(Cl)cc1C1CCN(CC2CC3C=CC2C3)CC1 (stereo not drawn) [Compound 141] | 25 to 100% | ++ (activity was measured to be from 1.0 μM to 5.0 μM) | 25 to 100% | ++ (activity was measured to be from 1.0 μM to 5.0 μM) | 25 to 100% | +++ (activity was measured to be less than 1.0 μM)
6 | CCOC(=O)N1[C@@H]2CC[C@@H]1CC(N1CCC(c3cc(F)ccc3C)CC1)C2 (stereo partly drawn) [Compound 145] | 25 to 100% | +++ (activity was measured to be less than 1.0 μM) | 25 to 100% | +++ (activity was measured to be less than 1.0 μM) | 25 to 100% | +++ (activity was measured to be less than 1.0 μM)
7 | COc1ccc(C2CCN(CC3C[C@H]4CC[C@H]3C4)CC2)c(OC)c1 (stereo partly drawn) [Compound 159] | < 25% | + (activity was measured to be greater than 5.0 μM) | < 25% | + (activity was measured to be greater than 5.0 μM) | < 25% | ++ (activity was measured to be from 1.0 μM to 5.0 μM)
8 | CCCC1CCC(N2CCC(O)(c3cc(Cl)ccc3OC)CC2)CC1 (stereo not drawn) [Compound 164] | < 25% | + (activity was measured to be greater than 5.0 μM) | < 25% | + (activity was measured to be greater than 5.0 μM) | 25 to 100% | ++ (activity was measured to be from 1.0 μM to 5.0 μM)
9 | COc1ccc(NC(C)=O)cc1C1CCN(CC2C[C@H]3CC[C@H]2C3)CC1 (stereo partly drawn) [Compound 166] | < 25% | + (activity was measured to be greater than 5.0 μM) | < 25% | + (activity was measured to be greater than 5.0 μM) | < 25% | + (activity was measured to be greater than 5.0 μM)
10 | COc1ccccc1C1(C#N)CCN(C[C@H]2C[C@H]3CC[C@H]2C3)CC1 [Compound 172] | 25 to 100% | +++ (activity was measured to be less than 1.0 μM) | 25 to 100% | +++ (activity was measured to be less than 1.0 μM) | 25 to 100% | +++ (activity was measured to be less than 1.0 μM)
